Data: BindingDB's records for doi:10.1021/jm960720+ (Ansto, 1997)

The compounds below were run against Sigma non-opioid intracellular receptor 1 (Cavia porcellus) (UniProt Q60492) (assay: Receptor binding affinity against Sigma-1 receptor from guinea pig membranes).
Sequence of Sigma non-opioid intracellular receptor 1 (Cavia porcellus) (Q60492 whole entry, looked up): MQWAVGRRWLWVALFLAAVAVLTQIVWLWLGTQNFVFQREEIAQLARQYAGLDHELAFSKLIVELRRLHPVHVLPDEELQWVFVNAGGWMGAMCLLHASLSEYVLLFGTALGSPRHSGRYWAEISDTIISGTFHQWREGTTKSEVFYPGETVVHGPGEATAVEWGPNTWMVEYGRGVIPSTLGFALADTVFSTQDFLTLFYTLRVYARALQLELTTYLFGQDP

SMILES	Ki [nM]
O=[N+]([O-])c1ccc(OCC2CCN(Cc3ccc(F)cc3)CC2)cc1 [1-(4-Fluoro-benzyl)-4-(4-nitro-phenoxymethyl)-piperidine]	1.2

What follows are compounds tested against Sigma non-opioid intracellular receptor 1 (Cavia porcellus) (UniProt Q60492) (assay: In vitro for binding affinity at sigma-1 receptor by measuring its ability to displace [3H](+)-pentazocine from guinea pig membranes).

SMILES	Ki [nM]
N#Cc1ccc(OCC2CCN(CCCF)CC2)cc1	4.3
FCCN1CCC(COc2ccc(I)cc2)CC1 [1-(2-Fluoro-ethyl)-4-(4-iodo-phenoxymethyl)-piperidine]	0.84
Fc1cccc(CN2CCC(COc3c(F)c(F)c(F)c(F)c3F)CC2)c1 [1-(3-Fluoro-benzyl)-4-pentafluorophenyloxymethyl-piperidine]	3.3
FCCCN1CCC(COc2c(F)c(F)c(F)c(F)c2F)CC1 [1-(3-Fluoro-propyl)-4-pentafluorophenyloxymethyl-piperidine]	1.7
Fc1ccc(CN2CCC(COc3c(F)c(F)c(F)c(F)c3F)CC2)cc1 [1-(4-Fluoro-benzyl)-4-pentafluorophenyloxymethyl-piperidine]	3.6
Ic1ccc(OCC2CCN(CC3CC3)CC2)cc1 [1-Cyclopropylmethyl-4-(4-iodo-phenoxymethyl)-piperidine]	0.5
Fc1c(F)c(F)c(CN2CCC(COc3c(F)c(F)c(F)c(F)c3F)CC2)c(F)c1F [1-Pentafluorophenylmethyl-4-pentafluorophenyloxymethyl-piperidine]	> 1000
OCCN1CCC(COc2ccc(I)cc2)CC1 [2-[4-(4-Iodo-phenoxymethyl)-piperidin-1-yl]-ethanol]	2.3
N#Cc1ccccc1CN1CCC(COc2ccc(I)cc2)CC1 [2-[4-(4-Iodo-phenoxymethyl)-piperidin-1-ylmethyl]-benzonitrile]	10.5
N#Cc1cccc(CN2CCC(COc3ccc(I)cc3)CC2)c1 [3-[4-(4-Iodo-phenoxymethyl)-piperidin-1-ylmethyl]-benzonitrile]	2.9
Brc1cccc(OCC2CCN(CC3CC3)CC2)c1 [4-(3-Bromo-phenoxymethyl)-1-cyclopropylmethyl-piperidine]	0.88
FCCCN1CCC(COc2ccc(Br)cc2)CC1 [4-(4-Bromo-phenoxymethyl)-1-(3-fluoro-propyl)-piperidine]	0.38
Brc1ccc(OCC2CCN(CC3CC3)CC2)cc1 [4-(4-Bromo-phenoxymethyl)-1-cyclopropylmethyl-piperidine]	0.6
N#Cc1ccc(OCC2CCN(Cc3ccccc3Br)CC2)cc1 [4-[1-(2-Bromo-benzyl)-piperidin-4-ylmethoxy]-benzonitrile]	2.02
N#Cc1ccc(OCC2CCN(CCF)CC2)cc1 [4-[1-(2-Fluoro-ethyl)-piperidin-4-ylmethoxy]-benzonitrile]	24.3
N#Cc1ccc(OCC2CCN(Cc3ccccc3I)CC2)cc1 [4-[1-(2-Iodo-benzyl)-piperidin-4-ylmethoxy]-benzonitrile]	9.24
N#Cc1ccc(OCC2CCN(Cc3ccc(F)cc3)CC2)cc1 [4-[1-(4-Fluoro-benzyl)-piperidin-4-ylmethoxy]-benzonitrile]	0.76
